Results reported in patent publication US12077503B2, “Substituted cyclic amides and their use as herbicides” (FMC CORPORATION, priority 2015, dated 2024).

What was measured:
Format in all cases: in vivo
[1] = system: barnyardgrass (Echinochloa crus-galli); test: Test A preemergence; details: Echinochloa crus-galli, pre-emergence, 240 h; for pest or weed control at 125 g/ha: 125 g ai/ha, preemergence, 0 to 100 scale where 0 is no effect and 100 is complete control, read-out: Barnyardgrass plant response rating; for pest or weed control at 500 g/ha: 500 g ai/ha, Preemergence, visual injury vs untreated controls after approximately 10 d, read-out: Barnyardgrass plant response rating (0 to 100 scale where 0 is no effect and 100 is complete control)
Procedure, shortened: (§1)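 Preemergence directed soil spray on seeded pots, or postemergence application to plants 2–10 cm, one- to two-leaf. Solvent mixture non-phytotoxic, with surfactant. Scored ~10 d later, visually, 0–100 vs untreated.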

[2] = system: barnyardgrass (Echinochloa crus-galli); test: Test B flooded paddy test; details: Echinochloa crus-galli, Flood, 250 g ai/ha; scale of 0 to 100 where 0 is no effect and 100 is complete control; read-out: Barnyardgrass plant response rating
Procedure, shortened: (§2)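 Plants at 2-leaf stage flooded to 3 cm above soil, with compounds applied directly to paddy water and that depth maintained. Plants kept in greenhouse 13–15 d. Visual rating versus controls on a 0 (no effect) to 100 (complete control) scale.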

[3] = system: sedge, umbrella (small-flower umbrella sedge, Cyperus difformis); test: Test B flooded paddy test; details: Cyperus difformis, Flood, 250 g ai/ha; scale of 0 to 100 where 0 is no effect and 100 is complete control; read-out: Sedge, Umbrella plant response rating
Procedure, shortened: as §2

[4] = system: ducksalad (Heteranthera limosa); test: Test B flooded paddy test; details: Heteranthera limosa, Flood, 250 g ai/ha; scale of 0 to 100 where 0 is no effect and 100 is complete control; read-out: Ducksalad plant response rating
Procedure, shortened: as §2

rice (Oryra sativa) = test: Test B flooded paddy test; details: Oryza sativa, Flood, 250 g ai/ha; scale of 0 to 100 where 0 is no effect and 100 is complete control; read-out: Rice plant response rating
Procedure, shortened: as §2

[5] = system: giant foxtail (Setaria faberii); test: Test A postemergence; details: Setaria faberi, post-emergence, 240 h, 125 g ai/ha, postemergence, visual injury rating after approximately 10 d; read-out: Foxtail, Giant plant response rating (0 to 100 scale, 0 no effect, 100 complete control)
Procedure, shortened: as §1

[6] = system: barnyardgrass (Echinochloa crus-galli); test: Test A postemergence; details: Echinochloa crus-galli, post-emergence, 240 h, 125 g ai/ha, postemergence, visual injury rating after approximately 10 d; read-out: Barnyardgrass plant response rating (0 to 100 scale, 0 no effect, 100 complete control)
Procedure, shortened: as §1

[7] = system: Galium (catchweed bedstraw, Galium aparine); test: Test A postemergence; details: Galium, post-emergence, 240 h, 125 g ai/ha, postemergence, visual injury rating after approximately 10 d; read-out: Galium plant response rating (0 to 100 scale, 0 no effect, 100 complete control)
Procedure, shortened: as §1

corn (Zea mays) = test: Test A postemergence; details: Zea mays, post-emergence, 240 h, 125 g ai/ha, postemergence, visual injury rating after approximately 10 d; read-out: Corn plant response rating (0 to 100 scale, 0 no effect, 100 complete control)
Procedure, shortened: as §1

[8] = system: wheat (Triticum aestivum); test: Test A postemergence; details: Triticum aestivum, post-emergence, 240 h, 125 g ai/ha, postemergence, visual injury rating after approximately 10 d; read-out: Wheat plant response rating (0 to 100 scale, 0 no effect, 100 complete control)
Procedure, shortened: as §1

[9] = system: ragweed (common ragweed, Ambrosia elatior); test: Test A postemergence; details: Ambrosia artemisiifolia, post-emergence, 240 h, 125 g ai/ha, postemergence, visual injury rating after approximately 10 d; read-out: Ragweed plant response rating (0 to 100 scale, 0 no effect, 100 complete control)
Procedure, shortened: as §1

[10] = system: ryegrass, Italian (Italian ryegrass, Lolium multiflorum); test: Test A postemergence; details: Lolium multiflorum, post-emergence, 240 h, 125 g ai/ha, postemergence, visual injury rating after approximately 10 d; read-out: Ryegrass, Italian plant response rating (0 to 100 scale, 0 no effect, 100 complete control)
Procedure, shortened: as §1

Kochia (Kochia scoparia) = test: Test A postemergence; details: Bassia scoparia, post-emergence, 240 h, 125 g ai/ha, postemergence, visual injury rating after approximately 10 d; read-out: Kochia plant response rating (0 to 100 scale, 0 no effect, 100 complete control)
Procedure, shortened: as §1

[11] = system: pigweed (Amaranthus retroflexus); test: Test A postemergence; details: Amaranthus retroflexus, post-emergence, 240 h, 125 g ai/ha, postemergence, visual injury rating after approximately 10 d; read-out: Pigweed plant response rating (0 to 100 scale, 0 no effect, 100 complete control)
Procedure, shortened: as §1

[12] = system: blackgrass (Alopecurus myosuroides); test: Test A postemergence; details: Alopecurus myosuroides, post-emergence, 240 h, 125 g ai/ha, postemergence, visual injury rating after approximately 10 d; read-out: Blackgrass plant response rating (0 to 100 scale, 0 no effect, 100 complete control)
Procedure, shortened: as §1

| Compound | pest or weed control at 125 g/ha [1] | pest or weed control at 500 g/ha [1] | pest or weed control at 250 g/ha [2] | pest or weed control at 250 g/ha [3] | pest or weed control at 250 g/ha [4] | pest or weed control at 250 g/ha (rice (Oryra sativa)) | pest or weed control at 125 g/ha [5] | pest or weed control at 125 g/ha [6] | pest or weed control at 125 g/ha [7] | plant injury at 125 g/ha (corn (Zea mays)) | plant injury at 125 g/ha [8] | pest or weed control at 125 g/ha [9] | pest or weed control at 125 g/ha [10] | pest or weed control at 125 g/ha (Kochia (Kochia scoparia)) | pest or weed control at 125 g/ha [11] | pest or weed control at 125 g/ha [12] |
| --- | --- | --- | --- | --- | --- | --- | --- | --- | --- | --- | --- | --- | --- | --- | --- | --- |
| CC(C)c1cccc([C@H]2CN(C)C(=O)[C@@H]2C(=O)Nc2ccc(F)cc2F)c1 [Compound 821] | 90% | 90% | 60% | 0% | 80% | 0% | 80% | 90% | 50% | 40% | 0% | 0% | 20% | 30% | 0% | 70% |
| CN1C[C@H](c2cccc(F)c2)[C@@H](C(=O)Nc2ccccc2F)C1=O [Compound 822] | 90% | 100% | 75% | 0% | 85% | 0% | 90% | 90% | 20% | 20% | 0% | 0% | 20% | 0% | 0% | 0% |
| Cc1c(F)cccc1NC(=O)[C@H]1C(=O)NC[C@@H]1c1cccc(C(F)(F)F)c1 [Compound 826] | 90% | 100% | 65% | 0% | 100% | 0% | 90% | 100% | 50% | 80% | 60% | 50% | 60% | 30% | 30% | 80% |
| Cc1cc(F)ccc1NC(=O)[C@H]1C(=O)NC[C@@H]1c1cccc(C(F)(F)F)c1 [Compound 828] | 70% | 90% | 0% | 0% | 30% | 0% | 90% | 70% | 30% | 40% | 20% | 0% | 20% | 0% | 0% | 50% |
